Source: PubChem BioAssay (NCI)
Where “and” joins values, the source holds several entries; their conditions need not be identical. Equal entries are not always repeated.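 These data come from cells grown in 96-well plates and exposed to compound for 48 hours at five concentrations. The concentration for 50% growth inhibition is given as GI50. TGI: total growth inhibition.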

Assays:
Assay in all cases: growth of human tumour cells (NCI), 48 h
HCC-2998 colon = test system: HCC-2998 colon
U251 CNS = test system: U251 CNS
MDA-MB-231 breast = test system: MDA-MB-231 breast
UACC-62 melanoma = test system: UACC-62 melanoma
HL-60(TB) leukemia = test system: HL-60(TB) leukemia
MDA-MB-435 = test system: MDA-MB-435
IGROV1 ovarian = test system: IGROV1 ovarian
HOP-92 NSCLC = test system: HOP-92 NSCLC
SF-539 CNS = test system: SF-539 CNS
NCI-H460 lung = test system: NCI-H460 lung

| Compound | GI50 (HCC-2998 colon) | TGI (HCC-2998 colon) | GI50 (U251 CNS) | TGI (U251 CNS) | GI50 (MDA-MB-231 breast) | TGI (MDA-MB-231 breast) | GI50 (UACC-62 melanoma) | TGI (UACC-62 melanoma) | GI50 (HL-60(TB) leukemia) | TGI (HL-60(TB) leukemia) | GI50 (MDA-MB-435) | TGI (MDA-MB-435) | GI50 (IGROV1 ovarian) | TGI (IGROV1 ovarian) | GI50 (HOP-92 NSCLC) | TGI (HOP-92 NSCLC) | GI50 (SF-539 CNS) | TGI (SF-539 CNS) | GI50 (NCI-H460 lung) | TGI (NCI-H460 lung) |
| --- | --- | --- | --- | --- | --- | --- | --- | --- | --- | --- | --- | --- | --- | --- | --- | --- | --- | --- | --- | --- |
| COC(=O)c1cc2c(cc1Cl)SC1=NN(C)S(=O)N1S2(=O)=O (configuration not stated) | > 100 µM | > 100 µM | > 100 µM | > 100 µM | > 100 µM | > 100 µM | > 100 µM | > 100 µM | > 100 µM | > 100 µM | > 100 µM | > 100 µM | > 100 µM | > 100 µM | 53.7 µM | > 100 µM | > 100 µM | > 100 µM | > 100 µM | > 100 µM |
| O=C(Nc1ccc(-n2ccc3c(NC(=O)c4ccccc4)ncnc32)cc1)c1cccc(C(F)(F)F)c1 | 4.96 µM | 27 µM | 0.146 µM | 13.7 µM | 2.76 µM | 23 µM | 0.809 µM | 11.1 µM | 3.02 µM | 36.7 µM | 2.16 µM | 16.3 µM | 5.63 µM | 27.2 µM | 7.51 µM | 26 µM | 1.11 µM | > 93.3 µM | 0.0837 µM | 12.3 µM |
| CCCCCCCC(=O)OCCCC1[C@]2(C)CC[C@@]3(C)C([C@H](C)CCC=C(C)C)CC[C@]3(C)C2CC[C@]12OC2(C)C (some centres not stated) | 18.6 µM | 47.5 µM | 27.7 µM | 93.3 µM | 10.8 µM | 34.6 µM | 17.6 µM | 78 µM | 28.5 µM | 67.4 µM | 36.6 µM | > 100 µM | 34.8 µM | > 100 µM | 28.2 µM | > 100 µM | 26.5 µM | 59.5 µM | 26.2 µM | 71 µM |
| CCN1CCN(c2cc(C)nc(N(CCCNc3ccnc4cc(Cl)ccc34)Cc3ccc4c(c3)OCO4)n2)CC1 | 2.4 µM | 5.39 µM | 2.13 µM | 4.73 µM | 1.93 µM | 4.44 µM | 1.85 µM | 3.51 µM | 1.9 µM | 4 µM | 1.77 µM | 3.3 µM | 3.46 µM | 16.7 µM | 1.61 µM | 4.67 µM | 1.73 µM | 3.21 µM | 3.07 µM | 11.2 µM |
| O=C(/C=C/c1ccc(C(F)(F)F)cc1)Nc1ccc(C=C2c3ccccc3C(=O)c3ccccc32)cc1 | 8.71 µM | > 100 µM | 5.69 µM | 60.7 µM | 16 µM | > 100 µM | 3.04 µM | 63.7 µM | 1.78 µM | 8.75 µM | 0.64 µM | 2.67 µM | 33.2 µM | > 100 µM | 1.49 µM | 22.4 µM | 23.1 µM | 96.3 µM | 5.48 µM | > 100 µM |
| O=S1(=O)N(Cc2ccccc2)[C@@H](Cc2ccccc2)[C@H](O)[C@H](O)[C@H](Cc2ccccc2)N1Cc1ccccc1 | 3.41 µM | 6.2 µM | 3.07 µM | 6.47 µM | 2.82 µM | 6.39 µM | 2.86 µM | 6.4 µM | 2.97 µM | 8.72 µM | 3.33 µM | 7.1 µM | 3.57 µM | 7.24 µM | 3.15 µM | 6.68 µM | 3.37 µM | 6.76 µM | 3.41 µM | 7.91 µM |
| Cc1cc(Nc2nc(C(=O)Nc3ccccc3)nc3ccccc23)n[nH]1 | 17.7 µM | > 25 µM | 5.71 µM | > 25 µM | 13.6 µM | > 25 µM | – | – | 5.9 µM | > 25 µM | 9.67 µM | > 25 µM | 4.48 µM | > 25 µM | 0.399 µM | > 25 µM | > 25 µM | > 25 µM | 2.29 µM | > 25 µM |
| CCCn1cnc2c(SCC(=O)O)nc(N)nc21 | – | > 100 µM | – | > 100 µM | – | > 100 µM | – | > 100 µM | – | > 100 µM | – | > 100 µM | – | > 100 µM | – | > 100 µM | – | – | – | > 100 µM |
| CC(C)c1nc(N(C)S(C)(=O)=O)nc(-c2ccc(F)cc2)c1/C=C/[C@@H](O)C[C@@H](O)CC(=O)O | > 100 µM | > 100 µM | 18.9 µM | > 100 µM | 4.81 µM | 42 µM | 42.1 µM | > 100 µM | > 100 µM | > 100 µM | 79.9 µM | > 100 µM | > 100 µM | > 100 µM | 0.467 µM | 6.68 µM | > 100 µM | > 100 µM | > 100 µM | > 100 µM |
| NS(=O)(=O)c1ccc(N=Nc2c(O)[nH]c3ccc(C(=O)NCc4ccncc4)cc23)cc1 | > 25 µM | > 25 µM | > 25 µM | > 25 µM | > 25 µM | > 25 µM | > 25 µM | > 25 µM | > 25 µM | > 25 µM | > 25 µM | > 25 µM | > 25 µM | > 25 µM | > 25 µM | > 25 µM | > 25 µM | > 25 µM | > 25 µM | > 25 µM |
| CN(C)CCNC(=O)c1ccc(-c2nc3ccc4[nH]ncc4c3c3c2C2CCC3C2)cc1 (configuration not stated) | 1.74 µM | 5.64 µM | 1.17 µM | 8.89 µM | 1.64 µM | 4.11 µM | 0.898 µM | 3.72 µM | 0.388 µM | 2.52 µM | 1.28 µM | 4.45 µM | 1.52 µM | 6.2 µM | 1.74 µM | 4.25 µM | 0.702 µM | 2.39 µM | 1.56 µM | 4.79 µM |
| c1cc(-c2nnc(SSc3ncnc4nc[nH]c34)o2)ccn1 | 3.38 µM | > 100 µM | 7.22 µM | > 100 µM | 4.45 µM | > 100 µM | 2.02 µM | > 100 µM | 2.49 µM | > 100 µM | 0.497 µM | > 100 µM | – | – | 0.582 µM | > 100 µM | 1.84 µM | > 100 µM | 5.15 µM | > 100 µM |
| O=[N+]([O-])c1nccn1CC(O)CN1CCCCC1 (configuration not stated) | – | > 100 µM | – | > 100 µM | – | > 100 µM | – | > 100 µM | – | > 100 µM | – | > 100 µM | – | > 100 µM | – | > 100 µM | – | > 100 µM | – | > 100 µM |
| CC[C@@]1(OC(=O)CN)C(=O)OCc2c1cc1n(c2=O)Cc2c-1nc1cc3c(cc1c2CCl)OCO3 | 0.283 µM | 3.76 µM | 0.0185 µM | > 42.9 µM | 1.9 µM | > 34.3 µM | < 0.01 µM | 2.28 µM | < 0.01 µM | – | 0.16 µM | 4.15 µM | 0.234 µM | 15.1 µM | 0.0724 µM | 7.13 µM | < 0.01 µM | < 0.0318 µM | < 0.01 µM | 4.44 µM |
| COC(=O)C(CCC(=O)CCl)N1C(=O)c2ccccc2C1=O (configuration not stated) | – | 22.5 µM | – | 28.9 µM | – | 28.7 µM | – | 26 µM | – | 5.71 µM | – | 22 µM | – | 26.9 µM | – | 12.1 µM | – | 22 µM | – | 29.5 µM |
| CC1CN(S(=O)(=O)c2oc(-c3ccc(Cl)cc3)nc2C#N)CC(C)O1 (configuration not stated) | 2.27 µM | 5.43 µM | 9.4 µM | 22.7 µM | 1.91 µM | 3.8 µM | 3.08 µM | 11 µM | 2.09 µM | 5.84 µM | 1.89 µM | 4.01 µM | 1.87 µM | 3.69 µM | 1.78 µM | 3.45 µM | 1.78 µM | 3.28 µM | 11.5 µM | 26 µM |
| CN1CCN(CCOc2ccc(-c3cnc4c(-c5cccc(F)c5)cnn4c3)cc2)CC1 | 1.7 µM | 3.28 µM | 1.64 µM | 3.57 µM | 1.71 µM | 3.55 µM | 1.73 µM | 3.29 µM | 2.1 µM | 4.36 µM | 1.71 µM | 3.16 µM | 1.82 µM | 3.8 µM | 1.41 µM | 3.2 µM | 1.49 µM | 2.88 µM | 1.72 µM | 3.19 µM |
| CC1=C2C(=CC(C)(C)[C@@H]2O)C(=O)[C@](C)(O)C12CC2 | 0.0237 µM | 0.079 µM and 0.0423 µM | 0.0169 µM | – | 0.0513 µM | – | – | 0.0623 µM and 0.0678 µM | 0.00901 µM and 0.0194 µM | 0.0495 µM and 0.0832 µM | 0.025 µM and 0.0147 µM | 0.0706 µM and 0.0319 µM | 0.0231 µM | 0.105 µM and 0.0698 µM | 0.0268 µM | 0.0887 µM and 0.0712 µM | – | 0.0548 µM and 0.038 µM | 0.00575 µM | 0.0437 µM and < 0.0311 µM |
| Cc1nc2ccc(Br)cc2c(=O)n1-c1ccc(NC2OCC(O)C(O)C2O)cc1 (configuration not stated) | 19.1 µM and > 100 µM | 40.4 µM and > 100 µM | – | – | 47.6 µM and > 100 µM | > 100 µM | 30.7 µM and > 100 µM | > 100 µM | 34.9 µM and 73.1 µM | > 100 µM | 36 µM and > 100 µM | > 100 µM | – | > 100 µM | 22.4 µM and > 100 µM | 64.2 µM and > 100 µM | 18.3 µM and > 100 µM | 37.2 µM and > 100 µM | 47.2 µM and > 100 µM | > 100 µM |
| C#CCNC(=S)N/N=C(\C)c1ccccn1 | 1.24 µM | > 100 µM | 0.408 µM | > 100 µM | 0.292 µM | > 100 µM | 1.12 µM | 4.38 µM | 0.084 µM | 0.36 µM | 3.1 µM | > 100 µM | 0.0522 µM | > 100 µM | 0.28 µM | > 100 µM | 0.35 µM | 3.52 µM | 0.949 µM | 5.22 µM |
